Assay results published in US20050106258A1, “Pharmacology and manufacturing method of Bombyx moriL related bioproduct” (priority 2003, published 2005).
Structures can show the parent of a compound that is named as a salt.

Assays:
[1] = tested on: 5′ Nucleotide Phosphodiesterase isoenzyme (isoenzyme V) in corpus cavernosum tissue; assay: 5′ Nucleotide Phosphodiesterase isoenzyme bands in rat corpus cavernosum tissue after oral dosing (polyacrylamide gel electrophoresis, laser scanning); format: in vivo, rats; conditions: P < 0.05 vs blank comparison (0.495 ± 0.328)
Procedure: Take 50 healthy male rats with body weight of 230±10.4 g, divide them into five groups at random, with 10 rats each group.
(1) The product mainly consisting of bombyx moriL test drug group: 200mg/kg and 400mg/kg two dose groups
(2) The positive comparison drug viagra group: 6 mg/kg and 12 mg/kg two dose groups
(3) The blank comparison group: normal saline 0.4 ml/per animal
Preparation of drug: After product mainly consisting of bombyx moriL and viagra are dissolved with quanitative normal saline, then use them.
Drug feeding way: Feed medicine to all groups of animal once.
Take corpus cavernosum 10 mg, put into the tissue lapping homogenate container, add 0.05M PH7.4 phosphoric acid buffering agent liquid of 0.2 ml homogenate into the ice bath, and lastly add to 10 ml to prepare homogenate liquid with concentration of 1 mg/n ml. Centrifuge by 20 min. at temperature 4° C., 3000 r/min, then take the supernatant liquid for use.
(1) Take 5′ Nucleotide Phosphodiesterase in the amount enough to dissolve phosphoric acid dieter bond by water, under the effecting of the bottom substance of 5′-[5-iodine indoxyl-(3)] thymidine acid ammonium salt, get iodine sub-indoxyl, it can be oxidized in air and generating violet 5.5′,by using -diuodoindigo principle to examine enzyme activity. […]

normal males [2] = assay: Arterial blood flow rate of corpus cavernosum penis of normal males (Doppler color ultrasound); format: in vivo; conditions: for MAX blood flow rate, change 1 h after administration, X ± SD: P < 0.001; for increasement of MAX (cavernous arterial maximal blood flow rate): 1 hour after administration vs before
Description: AIM: The physiological mechanism of penile erection expresses that NO is excreted in the cavernosum during sexual extraction, whose direct function is to activate GC, which catalyzes GPT to cGMP, so the smooth muscle of cavernosum is relax, and the inflowed blood volume is increased, then penis is erected. In this experiment, Doppler color-ultrasound instrument was used to observe the influence of product mainly consisting of bombyx moriL and viagra on the arterial blood flow rate of corpus cavernosum penis of normal males, to estimate the alternation of inflowed blood volume of cavernosum.
Tested Medicie: No.981005, light-blue capsule, 200 mg/capsule.
Sildenafilcitrate, viagra: light-blue rhombic table, 100 mg/tablet. The tablet was triturated to fine powder, and amylum was added. After adequate mixture, the powder was filled into 200 mg capsule. (The same specification as product mainly consisting of bombyx moriL).There was 50 mg sildenafilcitrate in every 8 capsules.
(§1) Subjects: 46 normal males, age 23-29, provided.
(§2) Methods: Double-blind, auto-control and mutual control design. The influence of the two medicines on arterial blood flow rate of cavernosum was contrasted, Based on ages, the objects were randonmly divided into 4 groups, and there were 11-12 people in one group. Before administration, arterial blood flow of corpus cavernosum penis was estimated respectively by Doppler color ultrasound instrument (Acuson, American, 128×p/10 c),and blood pressure was also measured. Then 2 groups were respectively given high dosage Medicine, that is, 8 capsules product mainly consisting of bombyx moriL and 8 capsules of viagra, and the dose-effect relationship was observed. Blood pressure and cavernous arterial blood flow of every group were estimated respectively at I and 2 hours after administration, and the time-effect relationship of product mainly consisting of bombyx moriL and viagra was observed. Whether the alternation before and after administration and the difference between groups were significant was convinced here.

normal males [3] = assay: Blood pressure of normal males; format: in vivo; conditions: for Systolic Pressure, change 1 h after administration, X ± SD: P < 0.01
Description: as §1, §2

[4] = Viagra 25 mg, n=11, before administration 1.09 ± 0.30
[5] = Viagra 25 mg, n=11, before administration 3.24 ± 1.02
[6] = Viagra 50 mg, n=12, before administration 1.25 ± 0.62
[7] = Viagra 50 mg, n=12, before administration 3.37 ± 0.79
[8] = Viagra 25 mg, n=11, before administration 81.8 ± 6.4
[9] = Viagra 25 mg, n=11, before administration 120.5 ± 10.6
[10] = Viagra 50 mg, n=12, before administration 78.6 ± 10.7
[11] = Viagra 50 mg, n=12, before administration 117.7 ± 9.8

## CCCc1nn(C)c2c(=O)[nH]c(-c3cc(S(=O)(=O)N4CCN(C)CC4)ccc3OCC)nc12 [Viagra, Sildenafil citrate]
[1]; Viagra 6 mg/kg
  isoenzyme band II area under peak, Peak Area X ± SD: 0.249 ± 0.126
[1]; Viagra 12 mg/kg
  isoenzyme band II area under peak, Peak Area X ± SD: 0.198 ± 0.092
Normal males [2]; [4]
  MIN blood flow rate, change 1 h after administration, X ± SD: +0.27 ± 1.01 cm/s
  MIN blood flow rate, change 2 h after administration, X ± SD: +0.36 ± 0.81 cm/s
Normal males [2]; Viagra 25 mg, n=11, before administration 2.64 ± 1.12
  TAMX blood flow rate, change 2 h after administration, X ± SD: 0.18 ± 1.17 cm/s
Normal males [2]; Viagra 25 mg, n=11, before administration 2.64 ± 1.12, P < 0.05
  TAMX blood flow rate, change 1 h after administration, X ± SD: +1.36 ± 1.43 cm/s
Normal males [2]; [5]
  PI (pulsation index), change 1 h after administration, X ± SD: −0.19 ± 1.16
  PI (pulsation index), change 2 h after administration, X ± SD: +0.10 ± 0.85
Normal males [2]; Viagra 25 mg, n=11, before administration 9.55 ± 2.58
  MAX blood flow rate, change 1 h after administration, X ± SD: +4.36 ± 2.98 cm/s
Normal males [2]; [6]
  MIN blood flow rate, change 1 h after administration, X ± SD: +0.17 ± 0.72 cm/s
  MIN blood flow rate, change 2 h after administration, X ± SD: +0.17 ± 0.91 cm/s
Normal males [2]; Viagra 50 mg, n=12, before administration 2.67 ± 0.78
  TAMX blood flow rate, change 2 h after administration, X ± SD: 0.50 ± 0.80 cm/s
Normal males [2]; Viagra 50 mg, n=12, before administration 2.67 ± 0.78, P < 0.01
  TAMX blood flow rate, change 1 h after administration, X ± SD: +1.43 ± 1.27 cm/s
Normal males [2]; [7]
  PI (pulsation index), change 1 h after administration, X ± SD: +0.24 ± 0.84
  PI (pulsation index), change 2 h after administration, X ± SD: −0.33 ± 0.72
Normal males [2]; Viagra 50 mg, n=12, before administration 9.58 ± 1.08
  MAX blood flow rate, change 1 h after administration, X ± SD: +5.67 ± 4.31 cm/s
Normal males [2]; Viagra 50 mg, n=12, before administration 9.58 ± 1.08, P < 0.05
  MAX blood flow rate, change 2 h after administration, X ± SD: +1.75 ± 2.63 cm/s
Normal males [2]; high dosage groups
  increasement of MAX (cavernous arterial maximal blood flow rate): 59.2%
Normal males [2]; low and high dosage groups, 1 hour after administration, P<0.01
  increasing rate of TAMX (cavernous average blood flow rate): 51.5-53.6%
Normal males [2]; low dosage groups
  increasement of MAX (cavernous arterial maximal blood flow rate): 46.6%
Normal males [3]; "High dosage" as printed, remarkable only at 1 hour after administration
  rate of hypotensive function: 8.3%
Normal males [3]; [8]
  Diastolic Pressure, change 1 h after administration, X ± SD: −2.7 ± 4.7 mmHg
  Diastolic Pressure, change 2 h after administration, X ± SD: −1.8 ± 4.6 mmHg
Normal males [3]; [9]
  Systolic Pressure, change 2 h after administration, X ± SD: −3.5 ± 6.2 mmHg
  Systolic Pressure, change 1 h after administration, X ± SD: −10.0 ± 6.3 mmHg
Normal males [3]; [10]
  Diastolic Pressure, change 1 h after administration, X ± SD: −3.4 ± 7.2 mmHg
  Diastolic Pressure, change 2 h after administration, X ± SD: −2.0 ± 6.4 mmHg
Normal males [3]; [11]
  Systolic Pressure, change 2 h after administration, X ± SD: −2.7 ± 5.6 mmHg
  Systolic Pressure, change 1 h after administration, X ± SD: −7.3 ± 6.1 mmHg
Normal males [3]; high dosage, 1 h after administration, p<0.01
  decreasing rate of systolic pressure (sp): 6.2%
